Measured values reported in paper PMC8018465, “Antimicrobial activities of a small molecule compound II-6s against oral streptococci” (Journal of Oral Microbiology, 2021).
≈ marks a conversion by molar mass, not a printed value.

Experiments:
[1] = tested on: 3-species streptococcal biofilms on bovine enamel slabs; assay: Transverse microradiography of biofilm-induced demineralization on bovine enamel slabs; type: cell-based; conditions: for biofilm-induced demineralization of enamel slabs (lesion depth, mineral loss): vs PBS control, 5 days, 5 min three times per day
From the text: The labial dental crown of bovine incisors was cut into 5 mm × 5 mm × 4 mm by a diamond-coated band saw with continuous water cooling (Struers Minitom; Struers, Copenhagen, Denmark). These bovine specimens were embedded in polymethylmethacrylate and labial enamel surfaces were ground flat with water-cooled carborundum discs of waterproof silicon carbide paper (Struers) of various grits (1,000, 1,200, 2,400, 3,000 and 4,000). Then, enamel blocks were painted with two layers of acid-resistant nail varnish, leaving a 4 × 4 mm window exposed on the labial enamel surface. These specimens were measured by the […] hardness test (Zwick, Ulm, Germany) and those in the range from 314.6 to 382.4 Knoop Hardness Numbers were selected for the demineralization assessment. All the polished samples were sonicated in distilled water for 5 min to remove the residual abrasives and sterilized in an ethylene oxide sterilizer (AnproleneAN 74i, Andersen, Haw River, NC, USA).
An amount of 2 ml bacterial suspension solution contained S. mutans, S. gordonii and S. sanguinis (1 × 10^7 CFU/ml for each bacterium) was added to each well of a 12-well plate with a bovine sample, which was cultured anaerobically in a BHIS medium at 37°C (5% CO2) for 24 h. The specimens were treated with PBS, 0.2% of CHX or different concentrations of II-6s (15.63 to 125 μg/ml) for 5 days (5 min, three times per day). The pH of all experimental solutions was adjusted to 7.0 before treatment. All specimens were washed with PBS and refreshed with BHIS after every exposure. After 5 days of incubation, samples were rinsed with distilled water to remove the remaining biofilms, then cut again and polished with waterproof silicon carbide abrasive papers (800–4,000 grit; Struers, Copenhagen, Denmark) to a thickness around 100 μm. […] Quantitative data of mineral loss and lesion depth were acquired by a calibrated analysis system TMR2006 (Inspektor Research Systems BV, Netherlands). […]

[2] = tested on: S. mutans; assay: Bacterial drug resistance assay (MIC after repeated passages); type: cell-based, Streptococcus mutans UA159; conditions: for change of MIC / induction of drug resistance after repeated exposure: 15 passages
Protocol: To examine whether S. mutans could develop drug resistance against II-6s, MIC measurements after repeated successive passages were performed to analyze the antimicrobial resistance, following a previous method. The MIC values of II-6s against S. mutans were tested as described above. After the initial MIC was determined, 20 µl of bacterial suspension in a well showing 1/2 MIC was mixed with 1,980 µl of BHI medium to eliminate the influence of residual drug. A volume of 50 µl of the resultant bacterial suspension was then inoculated onto a BHI agar plate followed by incubation at 37°C for 48 h. The colonies grown on the agar plate were again suspended in BHI broth. The overnight bacterial suspensions were diluted to a concentration of 1 × 10^7 CFU/ml for the next MIC test. The same procedure was repeatedly performed for 15 passages. An increase of four-fold or higher in MIC over the initial MIC was considered to be the standard for inducing resistance to an antibacterial agent. The assay was done in triplicates and repeated three times.

[3] = design: method as in PMID 29355409; conditions: 0.12% CHX daily for a week, repeated every month; in 18 months; cited from earlier work
[4] = tested on: S. mutans; assay: Time-kill assay; type: cell-based, Streptococcus mutans UA159; conditions: at MBC
Protocol: (§1) The time- and dose-dependent killing capacities of II-6s were assessed by the method modified from that of Koo et al.. S. mutans was diluted to 1 × 10^7 CFU/ml in BHI broth containing test compounds or not, and incubated in 5% CO2 at 37°C. For the time-kill curve, the final concentration of II-6s and CHX was equivalent to their MBC. At 0, 0.5, 1, 2, 4, 6, 8 and 10 h, samples were serially diluted in PBS and 50 μl aliquots were spread onto BHI agar medium. For the dose-dependent killing curve, S. mutans was treated with different doses of II-6s and CHX for 5 min before diluted and spread. All plates were incubated anaerobically for 48 h followed by enumeration of CFU. The time-kill or dose-dependent killing curves were constructed by plotting the log10(CFU/ml) versus the incubation time or concentration. The experiment was performed in triplicates and repeated at least three times.

[5] = tested on: S. mutans; assay: Dose-dependent killing assay; type: cell-based, Streptococcus mutans UA159; conditions: equivalent doses, 5-min exposure
Protocol: as §1

[6] = In vitro cytotoxicity assay (CCK-8); type: cell-based, human; conditions: human, 5 min exposure
Protocol: (§2) The cytotoxicity of II-6s was evaluated by the Cell Counting Kit-8 (CCK-8; Dojindo, Kumamoto, Japan) assay as described by Park et al.. Human gingival epithelial cells (HGE), human oral keratinocytes (HOK) and macrophages RAW264.7 (RAW264.7) were provided by the State Key Laboratory of Oral Diseases, Sichuan University, China. HGE, HOK and RAW264.7 were grown in Dulbecco’s modified Eagle’s medium (DMEM; GibcoTM, Invitrogen, Carlsbad, CA, USA) supplemented with 10% fetal bovine serum (FBS; Invitrogen) and 1% penicillin–streptomycin solution (Invitrogen) and cultured at 37°C in a humidified atmosphere containing 5% CO2. All cells were inoculated into 96 well plates at a density of 1 × 10^4 cells per well for 24 h and then treated with II-6s (0.98 to 500 μg/ml) for 5 min or 24 h. The positive control was treated with CHX (0.98 to 500 μg/ml) at the same time. After treatment, the wells were washed with sterile PBS and fresh medium was added. 10 μl of CCK-8 solution (10 μl) was added to each well and incubated for 1.5 h. The absorbance of each well was measured at the wavelength of 450 nm against a blank which contained medium only. Cell viability was calculated according to the following formula: percent viability = (A450 of treated group − A450 of blank control)/(A450 of negative control − A450 of blank control) × 100%. The experiment was conducted in triplicates and repeated three times.

[7] = tested on: Human gingival epithelial cells (HGE); assay: In vitro cytotoxicity assay (CCK-8); type: cell-based; conditions: 24 h exposure
Protocol: as §2

[8] = tested on: human oral keratinocytes (HOK); assay: In vitro cytotoxicity assay (CCK-8); type: cell-based; conditions: 24 h exposure
Protocol: as §2

[9] = In vitro cytotoxicity assay (CCK-8); type: cell-based; conditions: mouse, RAW264.7 macrophages; RAW264.7, 5 min exposure
Protocol: as §2

[10] = tested on: macrophages RAW264.7; assay: In vitro cytotoxicity assay (CCK-8); type: cell-based; conditions: RAW264.7, 24 h exposure
Protocol: as §2

[11] = tested on: methicillin-susceptible S. aureus; design: method as in PMID 30940910; conditions: cited from earlier work

SMILES	biofilm-induced demineralization of enamel slabs (lesion depth, mineral loss) [1]	change of MIC / induction of drug resistance after repeated exposure [2]	patients at high caries risk reduced to moderate or low risk [3]	treatment time after which no visible colonies were observed on the plate [4] [h]	reduction of S. mutans ([4]; within 2 h)	bactericidal activity in dose-dependent killing assay [5]	inhibitory effect on biofilm-induced demineralization ([1]; II-6s 31.25 to 125 μg/ml, vs 0.2% of CHX)	IC50 at 5 min ([6]; human gingival epithelial cells (HGE)) [µg/mL]	IC50 at 5 min ([6]; human oral keratinocytes (HOK)) [µg/mL]	IC50 (cytotoxicity), compared with CHX [7]	IC50 (cytotoxicity), compared with CHX [8]	IC50 at 5 min [9] [µg/mL]	IC50 (cytotoxicity), compared with CHX [10]	MIC ([2]; Streptococcus mutans, read-out: MIC against S. mutans during passaging) [µg/mL]	antimicrobial activity against methicillin-susceptible S. aureus [11]
[H]/N=C(\N/C(=N/[H])NCCCCCCNC(=N)NC(=N)Nc1ccc(Cl)cc1)Nc1ccc(Cl)cc1 [CHX, Chlorhexidine digluconate, reference compound]	significantly reduced the demineralization	increased by four times at the 15th passage	approximately 70%												
CC(C)(Cc1ccc2ccccc2c1)NC[C@H](O)CNc1cc(C(F)(F)F)cc(C(F)(F)F)c1 [II-6s, (S)-1-((3,5-bis(trifluoromethyl)phenyl)amino)-3-((2-methyl-1-(naphthalen-2-yl)propan-2-yl)amino)propan-2-ol]	significantly reduced the demineralization	did not induce drug resistance		8	approximately 3 log10 CFU/ml	better bactericidal activities than CHX	equivalent inhibitory effect on the biofilm-induced demineralization as compared to 0.2% of CHX	> 125	> 125	higher than that of CHX	higher than that of CHX	> 125	higher than that of CHX	3.91 (≈ 8.07 µM)	decent antimicrobial activity
